# PubChem BioAssay AID214 (DTP/NCI, 2004)
# Results filed as inconclusive are left out.
# Test system: B6C3F1 mice, colon carcinoma 38 s.c., T/C
# Assay: NCI In Vivo Anticancer Drug Screen. Data for tumor model Colon Carcinoma 38 (subcutaneous) in B6C3F1 mice
# Conditions: endpoint: median tumor weight (est.), higher = larger tumour
# Description: The antitumor activity of compounds was measured in mice bearing transplantable tumors. Survival or tumor size were measured and the results are expressed as the measurement made in the treated group (T) divided by the measurement made in the vehicle treated control group (C). The tumor model used in this assay is Colon Carcinoma 38 (subcutaneous) in B6C3F1 mice
# [1] = dose: 100.0 mg/kg/injection, schedule: Q07DX002 (ip), vehicle: saline
# [2] = dose: 400.0 mg/kg/injection, schedule: Q07DX002 (ip), vehicle: saline
# [3] = dose: 200.0 mg/kg/injection, schedule: Q07DX002 (ip), vehicle: saline with Tween-80
# [4] = dose: 50.0 mg/kg/injection, schedule: Q07DX002 (ip), vehicle: water
# [5] = dose: 100.0 mg/kg/injection, schedule: Q07DX002 (ip), vehicle: water
# [6] = dose: 100.0 mg/kg/injection, schedule: Q07DX002 (ip), vehicle: saline with Tween-80
# [7] = dose: 400.0 mg/kg/injection, schedule: Q07DX002 (ip), vehicle: saline with Tween-80
# [8] = dose: 25.0 mg/kg/injection, schedule: Q07DX002 (ip), vehicle: saline with Tween-80
# [9] = dose: 50.0 mg/kg/injection, schedule: Q07DX002 (ip), vehicle: saline with Tween-80
# [10] = dose: 12.5 mg/kg/injection, schedule: Q07DX002 (ip), vehicle: saline
# [11] = dose: 25.0 mg/kg/injection, schedule: Q07DX002 (ip), vehicle: saline
# [12] = dose: 200.0 mg/kg/injection, schedule: Q07DX002 (ip), vehicle: Klucel (hydroxypropylcellulose) (HPC)
# [13] = dose: 400.0 mg/kg/injection, schedule: Q07DX002 (ip), vehicle: Klucel (hydroxypropylcellulose) (HPC)
compound,measurement,setting,value
CCOC(=O)c1c[nH]c2oc(/C=N/N3CC(CN4CCOCC4)OC3=O)cc2c1=O (centres undefined),T/C,"dose: 150.0 mg/kg/injection, schedule: Q07DX002 (ip), vehicle: other",83 % of control
same,T/C,"dose: 300.0 mg/kg/injection, schedule: Q07DX002 (ip), vehicle: other",56 % of control
same,T/C,"dose: 600.0 mg/kg/injection, schedule: Q07DX002 (ip), vehicle: other",29 % of control
O=c1[nH]c(=O)n([C@H]2CCCO2)cc1F,T/C,"dose: 80.0 mg/kg/injection, schedule: Q07DX003 (ip), vehicle: Klucel (hydroxypropylcellulose) (HPC)",51 % of control
same,T/C,"dose: 160.0 mg/kg/injection, schedule: Q07DX003 (ip), vehicle: Klucel (hydroxypropylcellulose) (HPC)",85 % of control
same,T/C,"dose: 320.0 mg/kg/injection, schedule: Q07DX003 (ip), vehicle: Klucel (hydroxypropylcellulose) (HPC)",80 % of control
same,T/C,"dose: 640.0 mg/kg/injection, schedule: Q07DX003 (ip), vehicle: Klucel (hydroxypropylcellulose) (HPC)",25 % of control
O=C(O)Cc1cccc2c(=O)cc(C3CCCCC3)oc12,T/C,[1],90 % of control
same,T/C,[2],82 % of control
CC1(C)OCC2OC=CC(=O)C2O1 (centres undefined),T/C,[3],222 % of control
Cc1c2ccccc2c(C)c2c1cc(C(=O)O)c1ccccc12,T/C,"dose: 12.5 mg/kg/injection, schedule: Q07DX002 (ip), vehicle: sodium bicarbonate",66 % of control
same,T/C,"dose: 25.0 mg/kg/injection, schedule: Q07DX002 (ip), vehicle: sodium bicarbonate",98 % of control
same,T/C,"dose: 50.0 mg/kg/injection, schedule: Q07DX002 (ip), vehicle: sodium bicarbonate",74 % of control
same,T/C,"dose: 62.5 mg/kg/injection, schedule: Q07DX002 (ip), vehicle: sodium bicarbonate",112 % of control
same,T/C,"dose: 100.0 mg/kg/injection, schedule: Q07DX002 (ip), vehicle: sodium bicarbonate",107 % of control
same,T/C,"dose: 125.0 mg/kg/injection, schedule: Q07DX002 (ip), vehicle: sodium bicarbonate",106 % of control
same,T/C,"dose: 200.0 mg/kg/injection, schedule: Q07DX002 (ip), vehicle: sodium bicarbonate",108 % of control
same,T/C,"dose: 250.0 mg/kg/injection, schedule: Q07DX002 (ip), vehicle: sodium bicarbonate",76 % of control
same,T/C,"dose: 500.0 mg/kg/injection, schedule: Q07DX002 (ip), vehicle: sodium bicarbonate",26 % of control
same,T/C,"dose: 1000.0 mg/kg/injection, schedule: Q07DX002 (ip), vehicle: sodium bicarbonate",23 % of control
Cc1c(-c2ccc(-c3ccccc3F)cc2)nc2ccc(F)cc2c1C(=O)O,T/C,"dose: 3.6 mg/kg/injection, schedule: Q01DX008 (ip), vehicle: water",45 % of control
same,T/C,"dose: 6.0 mg/kg/injection, schedule: Q01DX008 (ip), vehicle: water",53 % of control
same,T/C,"dose: 10.0 mg/kg/injection, schedule: Q01DX008 (ip), vehicle: water",43 % of control
same,T/C,"dose: 16.6 mg/kg/injection, schedule: Q01DX008 (ip), vehicle: water",26 % of control
same,T/C,"dose: 27.7 mg/kg/injection, schedule: Q01DX008 (ip), vehicle: water",23 % of control
CCCCCC(O)C1C(=O)OC(C)C(O)/C=C/C=C/C=C/C=C\C=C(\C)C(O)CC(O)CC(O)CC(O)CC(O)CC(O)CC1O (centres undefined),T/C,"dose: 6.25 mg/kg/injection, schedule: Q07DX002 (ip), vehicle: water",81 % of control
same,T/C,"dose: 12.5 mg/kg/injection, schedule: Q07DX002 (ip), vehicle: water",103 % of control
same,T/C,"dose: 25.0 mg/kg/injection, schedule: Q07DX002 (ip), vehicle: water",77 % of control
same,T/C,[4],69 % of control
same,T/C,[5],62 % of control
CN(C)/N=N/c1nc[nH]c1C(N)=O,T/C,"dose: 90.0 mg/kg/injection, schedule: Q01DX006 (ip), vehicle: carboxymethylcellulose (CMC)",47 % of control
CCN(CC)c1ccc2[nH]c3c(C(N)=O)cc(=O)c(=O)c=3oc2c1,T/C,[6],93 % of control
same,T/C,[3],99 % of control
same,T/C,[7],93 % of control
NS(=O)(=O)OCCCCCCCOS(N)(=O)=O,T/C,"dose: 12.5 mg/kg/injection, schedule: Q07DX002 (ip), vehicle: saline with Tween-80",214 % of control
same,T/C,[8],270 % of control
same,T/C,[9],192 % of control
same,T/C,[6],94 % of control
same,T/C,[3],104 % of control
O=CC(O)C(O)C(O)C(O)CO (centres undefined),T/C,"dose: 75.0 mg/kg/injection, schedule: Q07DX002 (ip), vehicle: saline",106 % of control
same,T/C,"dose: 150.0 mg/kg/injection, schedule: Q07DX002 (ip), vehicle: saline",79 % of control
same,T/C,"dose: 300.0 mg/kg/injection, schedule: Q07DX002 (ip), vehicle: saline",66 % of control
same,T/C,"dose: 600.0 mg/kg/injection, schedule: Q07DX002 (ip), vehicle: saline",94 % of control
same,T/C,"dose: 1200.0 mg/kg/injection, schedule: Q07DX002 (ip), vehicle: saline",110 % of control
COc1ccc(C(=O)C(CN(C)C)CN(C)C)cc1,T/C,"dose: 3.12 mg/kg/injection, schedule: Q07DX002 (ip), vehicle: saline",109 % of control
same,T/C,"dose: 6.25 mg/kg/injection, schedule: Q07DX002 (ip), vehicle: saline",113 % of control
same,T/C,[10],115 % of control
same,T/C,[11],102 % of control
COC1C(CO)OC(n2cnc3c(=S)nc(N)[nH]c32)C1O (centres undefined),T/C,"dose: 100.0 mg/kg/injection, schedule: Q07DX002 (ip), vehicle: Klucel (hydroxypropylcellulose) (HPC)",110 % of control
same,T/C,[12],46 % of control
same,T/C,[13],51 % of control
same,T/C,"dose: 800.0 mg/kg/injection, schedule: Q07DX002 (ip), vehicle: Klucel (hydroxypropylcellulose) (HPC)",13 % of control
CCC1=C2C(=O)c3ccccc3C2=C(C)S(=O)(=O)O1,T/C,"dose: 6.25 mg/kg/injection, schedule: Q07DX002 (ip), vehicle: saline with Tween-80",153 % of control
C[C@@]1(CO)[C@H](O)CC[C@@]2(C)[C@H]1CC[C@H]1C[C@@H]3C[C@@]12CC[C@@]3(O)COC(=O)CN,T/C,"dose: 0.4 mg/kg/injection, schedule: Q07DX002 (ip), vehicle: saline + alcohol",61 % of control
same,T/C,"dose: 0.8 mg/kg/injection, schedule: Q07DX002 (ip), vehicle: saline + alcohol",88 % of control
same,T/C,"dose: 1.6 mg/kg/injection, schedule: Q07DX002 (ip), vehicle: saline + alcohol",54 % of control
same,T/C,"dose: 3.2 mg/kg/injection, schedule: Q07DX002 (ip), vehicle: saline + alcohol",63 % of control
same,T/C,"dose: 6.4 mg/kg/injection, schedule: Q07DX002 (ip), vehicle: saline + alcohol",106 % of control
OC(C1CO1)C(O)C1CO1 (centres undefined),T/C,"dose: 2.0 mg/kg/injection, schedule: Q07DX002 (ip), vehicle: saline",117 % of control
same,T/C,"dose: 4.0 mg/kg/injection, schedule: Q07DX002 (ip), vehicle: saline",107 % of control
same,T/C,"dose: 8.0 mg/kg/injection, schedule: Q07DX002 (ip), vehicle: saline",57 % of control
COC(=O)Nc1nc2ccc(SC)cc2c(=O)[nH]1,T/C,"dose: 50.0 mg/kg/injection, schedule: Q07DX002 (ip), vehicle: Klucel (hydroxypropylcellulose) (HPC)",117 % of control
same,T/C,[12],84 % of control
same,T/C,[13],109 % of control
O=[N+]([O-])c1ccc(N(CCO)CCO)c2c1no[n+]2[O-],T/C,[8],85 % of control
same,T/C,[9],63 % of control
CCN(CC)CCOC(=O)Cc1cc(OC)cc2c(=O)cc(-c3ccccc3)oc12,T/C,[12],37 % of control
same,T/C,[13],73 % of control
O=C(O)C(O)C(O)C1[O][Sb][O]C1C(=O)O (centres undefined),T/C,[10],76 % of control
same,T/C,[11],84 % of control
same,T/C,"dose: 50.0 mg/kg/injection, schedule: Q07DX002 (ip), vehicle: saline",123 % of control
same,T/C,[1],107 % of control
O=C(C/C(=N\C(=S)Nc1cc(C(F)(F)F)ccc1Cl)NO)N1CCCC1,T/C,[9],85 % of control
same,T/C,[6],57 % of control
same,T/C,[3],70 % of control
same,T/C,[7],100 % of control
NC(Cn1ccc(=O)c(O)c1)C(=O)O (centres undefined),T/C,[1],97 % of control
same,T/C,[2],54 % of control
same,T/C,"dose: 800.0 mg/kg/injection, schedule: Q07DX002 (ip), vehicle: saline",156 % of control
[Na+],T/C,[4],100 % of control
same,T/C,[5],57 % of control
same,T/C,"dose: 200.0 mg/kg/injection, schedule: Q07DX002 (ip), vehicle: water",68 % of control
same,T/C,"dose: 400.0 mg/kg/injection, schedule: Q07DX002 (ip), vehicle: water",58 % of control
same,T/C,"dose: 800.0 mg/kg/injection, schedule: Q07DX002 (ip), vehicle: water",63 % of control
